Test results from paper PMC1810525, “Antagonism of the prostaglandin D2 receptor CRTH2 attenuates asthma pathology in mouse eosinophilic airway inflammation” (Respiratory Research, 2007).
Where two headings read alike, the source gives them in different places.

Tests used:
mCRTH2 [1] = target: T1, mCRTH2 (Mus musculus, UniProt Q9Z2J6); experiment: mCRTH2 whole cell competition binding ([3H]PGD2); conditions: displacement of [3H]PGD2, mCRTH2-HEK cells
T1 construct: expressed in transfected cells
T1 sequence (Q9Z2J6 1-382): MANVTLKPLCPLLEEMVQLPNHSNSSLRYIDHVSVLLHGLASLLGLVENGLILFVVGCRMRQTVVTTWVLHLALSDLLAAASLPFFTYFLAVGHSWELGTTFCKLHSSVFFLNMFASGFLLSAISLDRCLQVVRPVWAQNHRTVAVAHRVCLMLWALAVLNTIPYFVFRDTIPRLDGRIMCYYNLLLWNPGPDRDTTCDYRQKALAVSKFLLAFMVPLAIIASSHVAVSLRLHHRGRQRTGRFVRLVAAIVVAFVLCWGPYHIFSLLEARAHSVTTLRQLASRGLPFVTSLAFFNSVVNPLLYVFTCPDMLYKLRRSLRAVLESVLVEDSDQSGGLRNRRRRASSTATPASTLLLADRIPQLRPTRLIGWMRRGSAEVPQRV
Source text: The coding sequence of mCRTH2 (genbank accession no. AF054507) was amplified by PCR from mouse hippocampus cDNA and inserted into the pcDNA3.1(+) expression vector (invitrogen). A HEK293 cell line, stably expressing mCRTH2 (hereafter referred to as mCRTH2-HEK cells) was generated under G418 (Gibco #11811) selection and used as described below in whole cell binding and functional inositol phosphate accumulation assays. The coding sequence of mTP (genbank accession no. D10849) was amplified by PCR from mouse spleen cDNA and inserted into pcDNA3.1(+). HEK293 cells were transiently transfected with mTP as described and assayed after 48 hr as outlined below.
Binding assays were performed essentially as described previously. In brief, mCRTH2-HEK cells or HEK cells transiently transfected with mTP were seeded into white 96 well plates (Costar #3917) at a density of 30.000 cells/well. About 18–24 hr later, whole cell competition binding experiments were performed using 0.8 nM [^3H]PGD2 (Amersham #TRK734, 166 Ci/mmol) or 0.7 nM [^3H]SQ29548 (PerkinElmer #NET-936, 48.2 Ci/mmol), for mCRTH2 and mTP respectively. Total and nonspecific binding were determined in the absence and presence of 10 μM PGD2 for mCRTH2 and 10 μM U46619 for mTXA2 receptors.
was performed using the Prism 3.0 software (GraphPad Software, San Diego) as described previously with the following exceptions: Binding data from competition binding assays were normalized to percent of specific binding of [^3H]PGD2 or [^3H]SQ29548 and the Ki was then determined using the Cheng-Prusoff equation Ki = IC50/(1+L/Kd), where L is the concentration of radioactive ligand and Kd is its dissociation constant. For Schild analysis, global fitting using the Gaddum/Schild competitive interaction model was applied after the functional concentration-response curves for the agonists PGD2 or U46619 in the absence or presence of various antagonist concentrations were normalized to percent of the maximal response obtained by agonist alone.

AT1 = target: T2, AT1 (Homo sapiens, UniProt P30556); experiment: Profiling panel, radioligand binding AT1; conditions: 10 μM
T2 sequence (P30556 1-359): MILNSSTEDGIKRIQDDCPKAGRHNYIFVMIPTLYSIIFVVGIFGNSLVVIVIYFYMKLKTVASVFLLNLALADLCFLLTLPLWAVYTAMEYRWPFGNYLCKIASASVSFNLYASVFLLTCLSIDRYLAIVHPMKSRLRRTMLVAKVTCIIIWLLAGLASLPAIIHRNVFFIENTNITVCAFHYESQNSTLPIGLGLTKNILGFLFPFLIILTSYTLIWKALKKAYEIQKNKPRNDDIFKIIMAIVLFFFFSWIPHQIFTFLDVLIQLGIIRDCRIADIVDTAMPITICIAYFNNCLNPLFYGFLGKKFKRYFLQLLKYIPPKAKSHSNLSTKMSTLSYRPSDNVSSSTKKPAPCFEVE
Experimental: (§1) All assays were performed using recombinant human receptors and enzymes, and included the appropriate controls for assay validation. Enzymatic and binding assays, except for muscarinic binding, were performed by CEREP in vitro pharmacology profiling services. […] For stimulation of C3a, C5a, and ChemR23 receptors in InsP assays the following agonists were used: human recombinant C3a (C3a receptor), human recombinant C5a (C5a receptor), and the nonapeptide Chemerin (ChemR23).

BLT1 = BLT1 (Homo sapiens, UniProt Q15722); experiment: Profiling panel, radioligand binding BLT1; conditions: 10 μM
Experimental: as §1

C5a = target: T3, C5a (Homo sapiens, UniProt P21730); experiment: Profiling panel, C5a receptor; conditions: 10 μM, assay type B (binding) per table
T3 sequence (P21730 1-350): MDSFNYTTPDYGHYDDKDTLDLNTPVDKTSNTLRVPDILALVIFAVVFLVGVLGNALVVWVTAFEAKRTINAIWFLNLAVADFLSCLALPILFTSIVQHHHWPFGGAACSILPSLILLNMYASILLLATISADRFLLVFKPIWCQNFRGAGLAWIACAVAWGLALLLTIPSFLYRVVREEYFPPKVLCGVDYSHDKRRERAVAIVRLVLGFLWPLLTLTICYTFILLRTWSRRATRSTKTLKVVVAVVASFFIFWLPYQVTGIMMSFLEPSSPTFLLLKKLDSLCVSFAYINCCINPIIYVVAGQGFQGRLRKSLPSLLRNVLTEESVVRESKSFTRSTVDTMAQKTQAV
Experimental: as §1

Glucocorticoid = target: T4, Glucocorticoid (Homo sapiens, UniProt P04150); experiment: Profiling panel, radioligand binding Glucocorticoid; conditions: 10 μM
T4 sequence (P04150 1-777): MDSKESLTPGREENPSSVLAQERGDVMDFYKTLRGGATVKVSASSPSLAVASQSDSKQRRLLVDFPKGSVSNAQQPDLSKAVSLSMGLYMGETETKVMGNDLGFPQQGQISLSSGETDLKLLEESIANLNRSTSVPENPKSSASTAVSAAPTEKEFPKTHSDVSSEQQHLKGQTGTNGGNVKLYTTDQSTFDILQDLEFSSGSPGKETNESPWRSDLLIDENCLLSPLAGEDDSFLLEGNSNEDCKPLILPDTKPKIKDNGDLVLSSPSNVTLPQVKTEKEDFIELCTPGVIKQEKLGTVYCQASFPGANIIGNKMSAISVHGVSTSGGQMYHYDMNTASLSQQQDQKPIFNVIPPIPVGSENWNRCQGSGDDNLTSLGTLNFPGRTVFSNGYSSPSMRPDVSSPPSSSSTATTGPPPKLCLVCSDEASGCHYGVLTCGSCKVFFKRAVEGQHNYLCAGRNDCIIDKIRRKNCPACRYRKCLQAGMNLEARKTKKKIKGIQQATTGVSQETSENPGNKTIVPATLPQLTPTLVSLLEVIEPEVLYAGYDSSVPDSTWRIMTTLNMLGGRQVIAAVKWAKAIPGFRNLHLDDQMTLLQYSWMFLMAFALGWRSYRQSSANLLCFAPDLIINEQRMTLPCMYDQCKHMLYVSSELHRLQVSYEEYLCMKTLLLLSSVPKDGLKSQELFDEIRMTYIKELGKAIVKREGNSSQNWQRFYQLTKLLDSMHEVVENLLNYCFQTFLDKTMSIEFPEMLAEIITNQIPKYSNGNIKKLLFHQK
Experimental: as §1

DP = conditions: cited from earlier work
mCRTH2 [2] = target: mCRTH2; design: method as in PMID 15563582; conditions: obtained by others in the same expression system; read-out: reported Ki value mCRTH2; cited from earlier work

Chain of BLT1 (Q15722 whole entry): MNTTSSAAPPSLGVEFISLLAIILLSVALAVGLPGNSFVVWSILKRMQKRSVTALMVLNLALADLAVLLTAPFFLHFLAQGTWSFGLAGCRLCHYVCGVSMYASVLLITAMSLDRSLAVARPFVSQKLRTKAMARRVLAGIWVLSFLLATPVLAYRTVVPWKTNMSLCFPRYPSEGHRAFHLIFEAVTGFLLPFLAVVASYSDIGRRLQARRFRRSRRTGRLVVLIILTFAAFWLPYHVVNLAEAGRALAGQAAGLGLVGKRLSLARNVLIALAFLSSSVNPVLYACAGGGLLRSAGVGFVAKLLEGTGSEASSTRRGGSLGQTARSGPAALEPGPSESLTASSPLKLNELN

Structure (SMILES) | pKi mCRTH2 (mCRTH2 [1]) | Ki (mCRTH2 [1]; printed in brackets after pKi, read-out: Ki mCRTH2) [nM] | % of control AT1 (AT1) [%] | % of control BLT1 (BLT1) [%] | % of control C5a (C5a) [%] | % of control Glucocorticoid (Glucocorticoid) [%] | preference for CRTH2 over DP (DP) [fold] | Ki (mCRTH2 [1]; read-out: pKi mCRTH2 (converted)) [nM] | Ki (mCRTH2 [2]) [nM]
CN(C1CCc2c(c3ccccc3n2CC(=O)O)C1)S(=O)(=O)c1ccc(F)cc1 (stereo not drawn) [TM30089] | 8.96 ± 0.05 | 1.1 | 90.1 ± 2.8 | 89.3 ± 3.5 | 108.7 ± 6.3 | 98.9 ± 11.3 | > 1000 |  | 
O=C(O)CCn1c2c(c3ccccc31)C[C@H](NS(=O)(=O)c1ccc(F)cc1)CC2 [ramatroban, reference compound] |  |  |  |  |  |  |  | 4.17 | 28
